# Measurements reported in patent publication US20240132518A1, “CEPHALOSPORIN ANTIBACTERIAL COMPOUND AND PREPARATION METHOD THEREFOR” (priority 2021, published 2024).
# Where two headings read alike, the source gives them in different places.
# Assays:
# [1] = test system: Control strain (Escherichia coli) ATCC 25922; test: Antibacterial MIC assay (ID-CAMHB), control strain Escherichia coli; format: cell-based
# Protocol: (§1) 1. The test compounds were dissolved in sterile normal saline, vortexed for uniformly mixing, and diluted in a 2-fold dilution with the sterile normal saline (11 concentration points in total). The test concentration range was 32-0.031 μg/mL, and two duplicate wells were set for each concentration. Additional wells without drug dosing were set as growth controls.
# (§2) 2. 4 μL of the diluent was added to 196 μL of the bacterial suspension in a 96-well plate (the bacterial count in the bacterial suspension was 2-8×10^5 colony forming units/mL).
# (§3) The minimum inhibitory concentration (MIC) assay was performed with reference to the Clinical and Laboratory Standards Institute (CLSI) guidelines.
# [2] = test system: Carbapenem-resistant Pseudomonas aeruginosa (CRPA); test: Antibacterial MIC assay (ID-CAMHB), carbapenem-resistant Pseudomonas aeruginosa; format: cell-based
# Protocol: as §1, §2, §3
# [3] = test system: Carbapenem-resistant Acinetobacter baumannii (CRAB); test: Antibacterial MIC assay (ID-CAMHB), carbapenem-resistant Acinetobacter baumannii; format: cell-based
# Protocol: as §1, §2, §3
# [4] = test system: Carbapenem-resistant Enterobacteriaceae (CRE, Klebsiella pneumoniae); test: Antibacterial MIC assay (ID-CAMHB), carbapenem-resistant Enterobacteriaceae; format: cell-based
# Protocol: as §1, §2, §3
# [5] = test system: Control strain (Pseudomonas aeruginosa) ATCC 27853; test: Antibacterial MIC assay (ID-CAMHB), control strain Pseudomonas aeruginosa; format: cell-based; details: ATCC27853
# Protocol: as §1, §2, §3
# [6] = Pharmacokinetic study in cynomolgus monkeys; format: in vivo; details: cynomolgus monkey, plasma, 10 mg/kg single intravenous infusion, individual animals
# Protocol: An appropriate amount of a test compound was weighed precisely and added to a container, and 0.9% sodium chloride injection and 0.2 M NaOH solution were added thereto in an ice bath until the test compound was completely dissolved, so that a sample solution at a concentration of 2 mg/mL was obtained followed by storage at 2-8° C. for later use.
# • Species and strain: cynomolgus monkey • Animal grade: general grade • Animal source: Guangxi Xiongsen Primate Experimental Animal Breeding Development Co., Ltd. • Number of the using of laboratory animal: SYXK (Su) 2019-0012
# 6 cynomolgus monkeys (half male and half female) were selected and randomly divided into 3 groups with 1 animal/sex in each group. The cynomolgus monkeys were administered with the test sample at a dose of 10 mg/kg by the single intravenous infusion. Blood samples were collected from each group of animals at the following time points: before administration, and 5 min, 15 min, 0.5 h, 1 h, 2 h, 4 h, 6 h, and 8 h after administration. In the test, the concentration of each test compound in the plasma of the cynomolgus monkey was detected by the LC-MS/MS method, and the lower limits of quantification of the analysis methods for the plasma samples were all 1 μg/mL. The plasma concentration data were analyzed by the non-compartmental analysis (NCA) of the analysis software for pharmacokinetic data, WinNonlin, pharmacokinetic parameters were calculated, and pharmacokinetic characteristics of the test compounds in cynomolgus monkeys after administration were investigated, with the results shown in the following table.
# [7] = strain FDA-CDC AR-BANK#0439, AMR gene aac(6′)-Il, aadA1b, BCR1, IMP-18, OXA-50
# [8] = strain FDA-CDC AR-BANK#0457, AMR gene aadA6, VIM-2
# [9] = strain FDA-CDC AR-BANK#0052, AMR gene OXA-58, OXA-100, sul2
# [10] = strain FDA-CDC AR-BANK#0070, AMR gene OXA-58, OXA-100, sul2
# [11] = strain FDA-CDC AR-BANK#0361, AMR gene TEM-1, SHV-12, KPC-2
# [12] = strain FDA-CDC AR-BANK#0362, AMR gene TEM-1, SHV-11, KPC-2
# [13] = strain FDA-CDC AR-BANK#0363, AMR gene TEM-1, SHV-12, KPC-2
# [14] = strain FDA-CDC AR-BANK#0438, AMR gene aph(3′)-Ia, dfrA12, KPC-3, OmpK35, oqxA, oqxB, SHV-11
# [15] = strain FDA-CDC AR-BANK#0453, AMR gene KPC-3, OmpK35, oqxA, oqxB, SHV-11, TEM-1B
# [16] = both sexes, cynomolgus, iv, 10 mg/kg
structure (smiles),measurement,setting,value
C[C@H](CN(CCCNC(=O)c1ccc(O)c(O)c1Cl)C(=O)c1ccc(O)c(O)c1Cl)[N+]1(CC2=C(C(=O)[O-])N3C(=O)[C@@H](NC(=O)/C(=N\OC(C)(C)C(=O)O)c4csc(N)n4)[C@H]3SC2)CCCC1 [Compound 2],MIC,[1]; ATCC25922,0.125 µg/mL
same,MIC,[2]; [7],0.5 µg/mL
same,MIC,"[2]; strain FDA-CDC AR-BANK#0441, AMR gene KPC-2",8 µg/mL
same,MIC,"[2]; strain FDA-CDC AR-BANK#0444, AMR gene aac(6′)-Il, dfrB5, OXA-4, tet(G), VIM-2",4 µg/mL
same,MIC,[2]; [8],0.25 µg/mL
same,MIC,"[3]; strain FDA-CDC AR-BANK#0036, AMR gene strB, OXA-65, OXA-24, strA, sul2",0.5 µg/mL
same,MIC,[3]; [9],0.125 µg/mL
same,MIC,"[3]; strain FDA-CDC AR-BANK#0063, AMR gene OXA-23, OXA-65, OXA-24, sul2",4 µg/mL
same,MIC,[3]; [10],0.25 µg/mL
same,MIC,"[3]; strain FDA-CDC AR-BANK#0101, AMR gene strB, OXA-65, OXA-24, strA, sul2",1 µg/mL
same,MIC,[4]; [11],1 µg/mL
same,MIC,[4]; [12],0.25 µg/mL
same,MIC,[4]; [13],0.5 µg/mL
same,MIC,[4]; [14],1 µg/mL
same,MIC,[4]; [15],1 µg/mL
same,MIC,[5],0.0625 µg/mL
CC(C)(O/N=C(\C(=O)N[C@@H]1C(=O)N2C(C(=O)[O-])=C(C[N+]3(CCN(CCCNC(=O)c4ccc(O)c(O)c4Cl)C(=O)c4ccc(O)c(O)c4Cl)CCCC3)CS[C@H]12)c1csc(N)n1)C(=O)O [Compound 1],MIC,"[1]; ATCC25922, ID-CAMHB, control strain ATCC 25922, read-out: MIC",0.0625 µg/mL
same,AUC(0-inf),[6]; [16],32900 ng·h/mL
same,AUC(0-t),[6]; [16],29300 ng·h/mL
same,clearance,[6]; [16],5.06 mL/min/kg
same,half-life,[6]; [16],37.2 min
same,Cmax,"[6]; both sexes, cynomolgus, iv, 10 mg/kg, read-out: Cmax",35500 ng/mL
same,MRT,"[6]; both sexes, cynomolgus, iv, 10 mg/kg, read-out: MRT",38.4 min
same,Vd,"[6]; both sexes, cynomolgus, iv, 10 mg/kg, read-out: Vd",0.27 L/kg
same,Tmax,[6]; both sexes,4.8 min
same,AUC last,[6]; 10 mg/kg,23440 ng·h/mL
same,AUCinf,[6]; 10 mg/kg,25640 ng·h/mL
same,CL,[6]; 10 mg/kg,6.5002 mL/min/kg
same,Cmax,[6]; 10 mg/kg,30640 ng/mL
same,MRT,[6]; 10 mg/kg,37.2 min
same,Vd,[6]; 10 mg/kg,0.31334 L/kg
same,t1/2,[6]; 10 mg/kg,33.6 min
same,MIC,[2]; [7],0.125 µg/mL
same,MIC,"[2]; strain FDA-CDC AR-BANK#0441, AMR gene KPC-2, read-out: MIC",2 µg/mL
same,MIC,"[2]; strain FDA-CDC AR-BANK#0444, AMR gene aac(6′)-Il, dfrB5, OXA-4, tet(G), VIM-2, read-out: MIC",2 µg/mL
same,MIC,[2]; [8],0.125 µg/mL
same,MIC,"[3]; strain FDA-CDC AR-BANK#0036, AMR gene strB, OXA-65, OXA-24, strA, sul2, read-out: MIC",0.25 µg/mL
same,MIC,[3]; [9],0.125 µg/mL
same,MIC,"[3]; strain FDA-CDC AR-BANK#0063, AMR gene OXA-23, OXA-65, OXA-24, sul2, read-out: MIC",32 µg/mL
same,MIC,[3]; [10],0.125 µg/mL
same,MIC,"[3]; strain FDA-CDC AR-BANK#0101, AMR gene strB, OXA-65, OXA-24, strA, sul2, read-out: MIC",1 µg/mL
same,MIC,[4]; [11],0.5 µg/mL
same,MIC,[4]; [12],0.25 µg/mL
same,MIC,[4]; [13],0.125 µg/mL
same,MIC,[4]; [14],0.5 µg/mL
same,MIC,[4]; [15],1 µg/mL
same,MIC,[5],0.125 µg/mL
